Data: ChEMBL document CHEMBL3507680, “University of Dundee, Gates Library screen for HepG2 cell viability”

Experiment: Human HepG2 cell viability assay in 384 well format
Format: toxicity, cell-based
Parameters: dose 125 nL, time 70.5 hour; concentration not given beside the values
Conditions: HepG2 cells, read-out: Inhibition

Compound	cytotoxicity at 70.5 h [%]
O=C(c1cn(-c2ccccc2)nn1)N1CCCC(n2cccn2)C1 (configuration not stated)	-3.98
CCc1noc(CN(CCc2ccccc2)C2CCN(C)CC2)n1	25.9
COc1nn(C)c2c1CCCN(C(=O)c1cc[nH]n1)C2	-13
CCOc1ccc(C(=O)N(C)C)cc1NC(=O)c1ccsc1	-10.6
O=C(Cc1ccsc1)N1Cc2nc(CN3CCCCC3)oc2C1	-4.42
O=C1NCCN1C1CCN(c2ccnc(-c3ccccc3)n2)CC1	-7.99
c1ccc(CN2CCCC2)c(CNc2cncc3nnnn23)c1	-7.51
Cn1ccc(C(=O)NCc2ccc(CN3CCCCC3)cc2)cc1=O	-12
CC(C)Cc1nc(CN2CCCC2Cn2cncn2)no1 (configuration not stated)	-7.43
O=C(NCCNc1ncccn1)N1CCCC1	-0.644
CC1N(CC2CC2)C(=O)COC12CCN(C(=O)c1ccncc1)CC2 (configuration not stated)	-1.87
Cn1cc(CCNC(=O)N2CCCC(Cc3nccn3C)C2)cn1 (configuration not stated)	-0.841
Cc1ccc(NS(=O)(=O)c2cc(C(=O)O)oc2C)c(Br)c1	-6.35
Cc1cc(NC(=O)NCC2COc3ccccc3C2)no1 (configuration not stated)	52
CCNC(=O)CN1CCN(c2ccnc3c(F)ccc(F)c23)CC1	-7.66
Cc1ccc(N2CCCC(NCc3ccc4c(c3)CCO4)C2)nn1 (configuration not stated)	4.47
Cc1cccc(N2CCC3(CCN(Cc4ccccn4)CC3)CC2)n1	-9.07
O=C(c1ccc(Cl)cc1)N1CCC2(CC1)C(=O)Nc1ccccc12	14.3
Cc1ccc(CN(C)Cc2nc3c(cnn3C)c(=O)[nH]2)o1	-2.01

Compound	cytotoxicity at 70.5 h [%]
Cn1ccc(C(=O)NCc2ccc(N3CCOCC3)nc2)cc1=O	-12
COc1ncc(C(=O)NCc2ccccc2)cn1	0.247
CC(NC(=O)NCc1ccccc1F)(C(=O)O)c1ccco1 (configuration not stated)	-2.87
CC(C)c1nccn1CCC(=O)N1CCCC1c1cccn1C (configuration not stated)	-3.96
CCN(CCSc1ccccc1)C(=O)c1cn([C@H]2CC[C@@H](N)CC2)nn1	-11.7
Cc1oc(C(C)C)cc1C(=O)N1C[C@H]2CC[C@@H]1CN(C(=O)N(C)C)C2	3.52
Cc1ccccc1C(=O)N1CCOCC1CN(C)C (configuration not stated)	-9.03
CC[C@@H]1N(CC2CCOCC2)CCC[C@]12CCC(=O)N2	-6.16
O=C(NCCC1CCCO1)c1ccccc1N1CCOCC1 (configuration not stated)	1.49
COc1cc(N2CC3(CCN(S(=O)(=O)C4CC4)C3)C2)ncn1	-7.2
CC(O)c1cn(CC2CCN(C(=O)CN(C)C(C)C)CC2)nn1 (configuration not stated)	-6.36
O=C(c1cccc(S(=O)(=O)NCCc2ccccn2)c1)N1CCOCC1	-2.52
CCC(=O)NC(CC(C)C)c1cccs1 (configuration not stated)	-14
N#Cc1cccc(S(=O)(=O)N2CCCCC2CCN2CCCC2=O)c1 (configuration not stated)	-2.56
CC(C)n1cnnc1CN(C)C(=O)c1ccc[nH]1	18.8
CCNC(=O)c1ccc(NC(=O)N(C)Cc2cccn2C)c(C)c1	5.27
CN1CCCC[C@@H]2[C@H]1[C@@H](c1ccccc1)CCN2C(=O)c1cccnc1	-7.01
CN(CCCNC(=O)NCc1ccncc1)CC(F)(F)F	-8.47
Cc1cccc(CN2C[C@@H]3OCCN(C)[C@@H]3C2)n1	-11.9

Compound	cytotoxicity at 70.5 h [%]
CNc1cc(C)nc(C2CN(Cc3cc[nH]n3)CCO2)c1 (configuration not stated)	-7.87
O=C(c1ccc(N2CCCC2)nn1)N1CCCC(n2ccnc2)C1 (configuration not stated)	-5.71
Cc1nc(N(C)C)ncc1C(=O)N[C@@H]1CCc2ccccc21	-11.5
O=C(CNCCn1cccn1)NCC1(c2ccccc2)CCC1	1.86
O=C(C1CC1)N1CCC(c2nc(O)c3c(n2)CN(C2CCCC2)CC3)C1 (configuration not stated)	9.71
Cc1cc(C)n(CC2CCCN2Cc2ccc(F)cc2C#N)n1 (configuration not stated)	-4.46
CCn1ccc(-c2cc(NCCCOc3cccc(C)c3)nc(C)n2)n1	-6.25
CC(C)Nc1nc(N2CCOCC2)nc2c1CN(Cc1ccoc1)CC2	-12.3
Cc1ccc(C(=O)O)cc1CNC(=O)CN1CC(C)(C)[C@@](C)(O)C1	-6.75
COCCn1c2c(ccc1=O)CCN(Cc1ccoc1)CC2	-3.82
O=C(C[C@@H]1COC[C@H]2CN(C3CCCC3)C[C@@H]12)NCc1cccnc1	-8.82
CN(C)CC(C)(C)Cn1cnc(-c2ccccc2)c1-c1ccncc1	-9.09
O=C(c1ccccc1)N1CC[C@H]2C[C@@H](c3nccs3)O[C@@H]2C1	-17.1
CCc1ccc(CNC(=O)CCc2nnc(-c3ccc(C)s3)o2)nc1	-3.31
CCOc1cccc2c1OCC(C(=O)NS(=O)(=O)c1ccc(Cl)cc1)=C2	21.1
COCCNC(=O)Cn1cc(OCc2ccc(F)cc2)c(=O)cc1CO	-9.69
O=C(NCCc1nncn1C1CC1)C1SCCc2sccc21 (configuration not stated)	-8.14
Cc1nc(C)n(CC2CN(c3ccc(C#N)cn3)CCO2)n1 (configuration not stated)	-4.17
Cc1cc(C)c2c(c1)C1(CC(=O)Nc3c1cnn3C(C)C)C(=O)N2 (configuration not stated)	-5.35
